Results published in US20230295212A1 (ROME Therapeutics, Inc., priority 2022, published 2023).

System: interferon-stimulated gene (ISG) response
Test: In vivo decitabine challenge model in C57BL/6 mice (ISG response)
Set-up: species or system mouse
Conditions: decitabine i.p. 5 mg/kg
Experimental: Exemplary compounds were tested for ability to alter the interferon-stimulated gene (ISG) response in C57BL/6 mice treated with decitabine. Assay procedures and results are described below. Twenty 9-11 week old C57BL/6 mice were acclimated to the lab for at least 5 days. Compound 23 was prepared in a 0.5% methylcellulose solution for p.o. administration. Decitabine (Sigma-Aldrich) was dissolved in sterile PBS (pH 7.4) and dosed within 30 minutes of preparation of the solution. Doses of both the compound and decitabine were administered once a day, every day from Day 0 to Day 4. On Day 0, mice were split into five groups of five mice and given their first dose of decitabine (i.p., 5 mg/kg) and compound 23. Dosing groups were: Decitabine and compound 23 were administered daily from Day 0 to Day 4. All mice were euthanized 1 hour after the last dose administration on Day 4. Spleens, liver, and terminal colon were collected, along with plasma from each animal. The fold changes in interferon-stimulated gene (ISG) expression was calculated by first normalizing to GAPDH gene using the Delta CT method. The CT (gene of interest)—CT (reference gene) was calculated to generate a delta CT for all samples. The fold change was then calculated by taking the Log2(Delta CT(control)—Delta CT (experimental). The control in this example was the PBS control animal group. The Taqman duplex assay was used to determine levels of GAPDH v. IFIT2. Twenty 9-11 week old C57BL/6 mice were acclimated to the lab for at least 5 days. Compound 2 was prepared in 20% PEG400 in PBS (final pH 4.5) for p.o. administration. Decitabine (Sigma) was dissolved in sterile PBS (pH 7.4) and dosed within 30 minutes of preparation of the solution. Doses of both Compound 2 and decitabine were administered once a day. On Day 0, mice were split into five groups of five mice and given their first dose of decitabine and Compound 2. […] The fold changes in interferon-stimulated gene (ISG, specifically IRF7 and MX1) expression was calculated by first normalizing to GAPDH gene using the Delta CT method. […]

`Nc1ccn([C@H]2C[C@H](O)[C@](CO)(CCl)O2)c(=O)n1` [Compound 2, 4-amino-1-((2R,4S,5R)-5-(chloromethyl)-4-hydroxy-5-(hydroxymethyl)tetrahydrofuran-2-yl)pyrimidin-2(1H)-one] was tested, and the “change in interferon-stimulated gene (ISG) response (FIG. 2A)” value (compound p.o. 0.6, 2.0, 6.0 mg/kg daily Day 0 to Day 4, IFIT2 v. GAPDH) was “change in ISG response” and the “change in interferon-stimulated gene (ISG) response (FIGS. 2B and 2C)” value (compound p.o. 1, 10, 100 mg/kg daily, kidneys, IRF7 and MX1) was “change in the ISG response”.
